Consider 4 compounds from US8460868B2, “Genetic markers for schizophrenia and bipolar disorder” (priority 2007, dated 2013).

Data set [1] deals with patients with schizophrenia. Briefly: CATIE trial drug response (>20% decrease in PANSS Total Score) by HPCAL1/SV2C genotype. The data set is classed as in vivo, human. The following applies: for Response frequency: CATIE Phase 1; for OR vs. Low / OR vs. baseline: response; for OR vs. Low: vs low scoring genotype(s); for OR vs. baseline: vs sample not segmented by genotype. As for the experimental part: (§1) The Clinical Antipsychotic Trials of Intervention Effectiveness (CATIE), a large federally funded clinical trial designed to assess the efficacy of antipsychotics in a real world setting, is a valuable resource for determining the role of genes in drug response (Stroup et al., Schizophr. Bull. 29:15-31 (2003); Lieberman et al., N. Engl. J. […] As part of the CATIE trial SNP genotyping was performed for roughly half of the trial participants (Sullivan et al., Mol. Psychiatry 13:570-584 (2008)). […] The design of the CATIE study has been described in detail by others (Stroup et al., Schizophr. Bull. 29:15-31 (2003); Lieberman et al., N. Engl. J. […] A total of 738 subjects consented to provide DNA for genetic study. […] Genotype and phenotype data for the CATIE trial were made available to qualified researchers through The NIMH Center for Collaborative Genetic Studies on Mental Disorders. For reduction to practice, we evaluated data for 417 patients with schizophrenia self reported as having exclusively European ancestry. […] Golden Helix, Bozeman, Mont.). To generate a P value, HelixTree calculates analysis of deviance (a likelihood ratio statistic) that compares the observed contingency table vs. an expected contingency table created with all the possible variations of the genetic model. […] The standard FDA registration trial definition of response of >20% decrease in Positive and Negative Syndrome Scale (PANSS Total Score) was used to assign subjects to a response category. […] Bull. 29:73-80 (2003)). […] The tables report odds ratios relative to the baseline values (sample not segmented by genotype) and relative to values for the low scoring, mutually exclusive genotype(s).

Data set [2] concerns patients with schizophrenia. Briefly: CATIE trial side effects (discontinued for safety concerns, COMPEFF score 5) by HPCAL1/SV2C genotype. Type of data set: in vivo, human. The following applies: for OR vs. Low / OR vs. baseline: side effects; for OR vs. Low: vs low scoring genotype(s); for OR vs. baseline: vs sample not segmented by genotype. As for the experimental part: as §1

Setting [3] is: SV2C rs6453205 genotype C/C (C).
Where [4] appears, read: HPCAL1 rs11679891 genotype A/C, C/C (C).
Where [5] appears, read: HPCAL1 rs13033617 genotype C/C (C).
[6] abbreviates: HPCAL1 rs11679891 genotype C/C (C).
The mark [7] stands for this setting: SV2C rs4610441 genotype C/C (C).
The mark [8] stands for this setting: SV2C rs10064352 genotype T/T (T).
[9] abbreviates: SV2C rs10474464 genotype C/C (C).
[10] abbreviates: SV2C rs12152728 genotype C/C (C).
[11] abbreviates: SV2C rs12522597 genotype G/G, A/G (G).
[12] abbreviates: HPCAL1 rs7571627 genotype T/T (T).

As to `OCCN1CCN(CCCN2c3ccccc3Sc3ccc(Cl)cc32)CC1` [perphenazine], in data set [1] (setting [3]), the Response frequency came to 0.7, the “OR vs. Low” value is recorded as 3.36 and the OR vs. baseline came to 2.43. Further, in data set [2] (setting [4]), the “Frequency Study ending side effects” value worked out at 0.19, the “OR vs. Low” value is reported as more than 10 and the OR vs. baseline turned out to be 1.44. Further, in data set [2] (setting [5]), the “Frequency Study ending side effects” value worked out at 0.27, the “OR vs. Low” value was determined as 3.74 and the OR vs. baseline was 2.27.

As for `OCCOCCN1CCN(C2=Nc3ccccc3Sc3ccccc32)CC1` [quetiapine], the Response frequency in data set [1] (setting [6]) was determined as 0.6; in data set [1] (setting [7]), 0.6; in data set [1] (setting [8]) it was 0.6; in data set [1] (setting [9]) it was 0.6; in data set [1] (setting [10]), 0.5. The OR vs. baseline in data set [1] (setting [6]) stood at 3.05; in data set [1] (setting [7]), 3.05; in data set [1] (setting [8]), 3.05; in data set [1] (setting [9]) it was 3.05; in data set [1] (setting [10]), 2.03. Further, the “OR vs. Low” value in data set [1] (setting [8]) came to 3.67; in data set [1] (setting [10]) it was 2.70.

Regarding `Cc1nc2n(c(=O)c1CCN1CCC(c3noc4cc(F)ccc34)CC1)CCCC2` [risperidone], the Response frequency in data set [1] (SV2C rs4704297 genotype C/C, C/G (C)) amounted to 0.45.

Regarding `O=C1Cc2cc(CCN3CCN(c4nsc5ccccc45)CC3)c(Cl)cc2N1` [ziprasidone], in data set [1] (setting [11]), the Response frequency was 0.55, the “OR vs. Low” value is on record as 9.89 and the OR vs. baseline was determined as 1.49. Further, in data set [2] (setting [12]), the “Frequency Study ending side effects” value amounted to 0.33, the “OR vs. Low” value is listed as 4.98 and the OR vs. baseline amounted to 1.56. In data set [2] (SV2C rs246812 genotype A/A (A)), the “Frequency Study ending side effects” value is recorded as 0.5, the “OR vs. Low” value turned out to be 6.14 and the OR vs. baseline worked out at 3.17.
